The target of one experiment is T1, CCR2 (Homo sapiens, UniProt P41597).
T1 construct: host or cells: HEK293T, transient
T1 sequence (P41597 1-360 isoform P41597-2): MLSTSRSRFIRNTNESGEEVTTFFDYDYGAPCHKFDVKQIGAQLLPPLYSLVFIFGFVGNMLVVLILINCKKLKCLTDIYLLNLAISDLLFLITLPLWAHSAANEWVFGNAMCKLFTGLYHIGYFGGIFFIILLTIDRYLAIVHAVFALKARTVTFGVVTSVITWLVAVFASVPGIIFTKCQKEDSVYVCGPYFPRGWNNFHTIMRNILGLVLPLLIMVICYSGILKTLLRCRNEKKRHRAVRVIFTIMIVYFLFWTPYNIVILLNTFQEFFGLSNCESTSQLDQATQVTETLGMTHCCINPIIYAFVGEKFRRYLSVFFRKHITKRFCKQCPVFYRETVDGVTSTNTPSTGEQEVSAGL
The experiment in a line: Membrane-based NanoBRET saturation binding assay, CCR2_GSSG_Nluc membranes. As for the experimental part:
(§1) Emission spectra of Nluc -labeled CCR1 (CCR1_Nluc) protein: The emission spectra of CCR1_Nluc has already been reported by Toy et al.1 For a confirmation of the reported data with new CCR1_Nluc membrane batches, furimazine (Promega, Mannheim, Germany 1:2000) was added to the membrane preparations (2 µg protein/well). […]
(§2) NanoBRET binding assays: Membrane-based NanoBRET saturation assay: For the establishment of our NanoBRET binding assay, we referred to recently published protocols. […]
(§3) Then, 20 µL of the membrane preparations diluted in assay buffer (3 µg total protein/well) were added and the plates were incubated for 90 min at 37 °C. Subsequently, 5 µL of a furimazine solution (Promega, Mannheim, Germany, final assay dilution: 1:5,000) were added to each well (final assay volume: 35 µL) before measuring luminescence with a CLARIOstar microplate reader using 620/10 nm and 475/30 nm emission filters after 5 min of incubation in the dark. Bioluminescence resonance energy transfer (BRET) was determined as the ratio of acceptor fluorescence and donor luminescence. […] Specific binding signals were calculated as a difference of total and non-specific binding. If required, netBRET values were calculated as the difference between total BRET values and the values obtained in the absence of a fluorescent ligand. […]
In general terms: In BRET a luciferase serves as donor, and the signal depends on an acceptor being close.

For the next experiment, the target named is T2, CXCR1 (Homo sapiens, UniProt P25024).
T2 construct: host or cells: HEK293T, transient
T2 sequence (P25024 1-350): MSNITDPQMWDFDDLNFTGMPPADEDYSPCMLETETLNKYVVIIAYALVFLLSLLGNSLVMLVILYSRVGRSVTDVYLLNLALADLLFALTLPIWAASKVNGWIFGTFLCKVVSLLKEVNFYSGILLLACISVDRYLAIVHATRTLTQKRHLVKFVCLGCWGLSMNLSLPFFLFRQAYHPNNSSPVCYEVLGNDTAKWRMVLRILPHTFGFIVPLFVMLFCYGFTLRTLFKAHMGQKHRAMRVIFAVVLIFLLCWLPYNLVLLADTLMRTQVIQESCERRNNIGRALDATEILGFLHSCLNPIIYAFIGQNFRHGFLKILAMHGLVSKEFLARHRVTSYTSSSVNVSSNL
The experiment in a line: Membrane-based NanoBRET saturation binding assay, CXCR1_Nluc membranes. As for the experimental part:
as §1, §2, §3

As a reminder, the Kd is the equilibrium constant for the complex coming apart. On CCR2, `CN(C)c1ccc2c(-c3cc(C(=O)NCCOCCOCc4cn(CCCC(=O)C5=C(O)C(=O)N(c6ccc(Cl)cc6F)C5C5CCCCC5)nn4)ccc3C(=O)[O-])c3ccc(=[N+](C)C)cc-3oc2c1` (stereo not drawn) [compound 11] registered a dissociation constant (Kd) of 1980 ± 270 nM.

As for `CN(C)c1ccc2c(-c3cc(C(=O)NCCOCCOCc4cn(CCCC(=O)C5=C(O)C(=O)N(c6ccc(Br)cc6F)C5C5CCCCC5)nn4)ccc3C(=O)[O-])c3ccc(=[N+](C)C)cc-3oc2c1` (stereo not drawn) [compound 12], the Kd at CCR2 came out at 1690 ± 310 nM; at CXCR1, 12300 ± 300 nM.

(Values after publication PMC11249626, “Fluorophore-Labeled Pyrrolones Targeting the Intracellular Allosteric Binding Site of the Chemokine Receptor CCR1” (ACS Pharmacology & Translational Science, 2024).)
